Reference: patent US12622866B2, “Topical compositions and methods” (MARY KAY INC., priority 2018, dated 2026)

How the values were obtained:
B16-F1 melanocytes = assay: B16 pigmentation assay (melanogenesis); assay type: cell-based, mouse; conditions: ingredient 1%, 6 days, melanin secretion by absorbance at 405 nm
Source text: Melanogenesis is the process by which melanocytes produce melanin, a naturally produced pigment that imparts color to skin, hair, and eyes. Inhibiting melanogenesis is beneficial to prevent skin darkening and lighten dark spots associated with aging. This bioassay utilizes B16-F1 melanocytes (ATCC), an immortalized mouse melanoma cell line, to analyze the effect of compounds on melanogenesis. The endpoint of this assay is a spectrophotometric measurement of melanin production and cellular viability. B16-F1 melanocytes, were cultivated in standard DMEM growth medium with 10% fetal bovine serum (Mediatech) at 37° C. in 10% CO2 and then treated with the ingredients in the amounts indicated in Table 2 for 6 days. Following incubation, melanin secretion was measured by absorbance at 405 nm and cellular viability is quantified.

mushroom tyrosinase = assay: Mushroom tyrosinase activity assay; assay type: biochemical; conditions: ingredient 1%, substrate L-Dopa, read at 490 nm
Description: In mammalian cells, tyrosinase catalyzes two steps in the multi-step biosynthesis of melanin pigments from tyrosine (and from the polymerization of dopachrome). Tyrosinase is localized in melanocytes and produces melanin (aromatic quinone compounds) that imparts color to skin, hair, and eyes. Purified mushroom tyrosinase (Sigma) was incubated with its substrate L-Dopa (Fisher) in the presence of each of the ingredients in the amounts indicated in Table 3. Pigment formation was evaluated by colorimetric plate reading at 490 nm. The percent inhibition of mushroom tyrosinase activity was calculated compared to non-treated controls to determine the ability of tested ingredients to inhibit the activity of purified enzyme.

[1] = Antioxidant (AO) assay, total anti-oxidant capacity; assay type: biochemical; conditions: ingredient 1%, Cayman Anti-Oxidant capacity kit #709001
Source text: The assay relies on the ability of antioxidants in the sample to inhibit the oxidation of ABTS® (2,2′-azino-di-[3-ethylbenzthiazoline sulphonate]) to ABTS®·+by metmyoglobin. The antioxidant system of living organisms includes enzymes such as superoxide dismutase, catalase, and glutathione peroxidase; macromolecules such as albumin, ceruloplasmin, and ferritin; and an array of small molecules, including ascorbic acid, α-tocopherol, β-carotene, reduced glutathione, uric acid, and bilirubin. The sum of endogenous and food-derived antioxidants represents the total antioxidant activity of the extracellular fluid. Cooperation of all the different antioxidants provides greater protection against attack by reactive oxygen or nitrogen radicals, than any single compound alone. Thus, the overall antioxidant capacity may give more relevant biological information compared to that obtained by the measurement of individual components, as it considers the cumulative effect of all antioxidants present in plasma and body fluids. The capacity of the antioxidants in the sample to prevent ABTS oxidation was compared with that of Trolox, a water-soluble tocopherol analogue, and was quantified as molar Trolox equivalents. […]

[2] = test system: Type I procollagen peptide secretion by human adult epidermal fibroblasts; assay: Collagen stimulation assay; assay type: cell-based; conditions: ingredient 1%, 3 days, ELISA
Source text: Collagen is an extracellular matrix protein critical for skin structure. Increased synthesis of collagen helps improve skin firmness and elasticity. This bioassay was used to examine effects on the production of procollagen peptide (a precursor to collagen) by human epidermal fibroblasts. The endpoint of this assay was a spectrophotometric measurement that reflects the presence of procollagen peptide and cellular viability. The assay employed the quantitative sandwich enzyme immunoassay technique whereby a monoclonal antibody specific for procollagen peptide was pre-coated onto a microplate. Standards and samples were pipetted into the wells and any procollagen peptide present was bound by the immobilized antibody. […] Color development was stopped and the intensity of the color at 450 nm was measured using a microplate reader.
For generation of samples and controls, subconfluent normal human adult epidermal fibroblasts (Cascade Biologics) were cultivated in standard DMEM growth medium with 10% fetal bovine serum (Mediatech) at 37° C. in 10% CO2. […] Following incubation, cell culture medium was collected and the amount of Type I procollagen peptide secretion was quantified using the sandwich enzyme linked immuno-sorbant assay (ELISA) from Takara (#MK101) as explained above. […]

[3] = test system: lysyl oxidase expression in skin cells; assay: Lysyl oxidase assay; assay type: cell-based; conditions: ingredient 1%
Description: A lysyl oxidase assay was performed on skin cells (e.g., epidermal keratinocytes, fibroblasts, and/or dermal endothelial cells) to determine the ability of the ingredient listed in Table 8 to stimulate expression of lysyl oxidase in skin. Lysyl oxidase can catalyze crosslinking of elastin and collagens, thereby providing for a more structurally rigid matrix for skin. By increasing expression of lysyl oxidase, increased cross-linking of elastin and collagens can occur, which can be beneficial in reducing the appearance of fine lines, wrinkles, sagging skin, and/or non-elastic skin.

[4] = test system: TNF-α production by human epidermal keratinocytes; assay: Tumor necrosis factor alpha (TNF-α) assay; assay type: cell-based; conditions: ingredient 1%, PMA 10 ng/ml, 6 hours, ELISA
Source text: The prototype ligand of the TNF superfamily, TNF-α, is a pleiotropic cytokine that plays a central role in inflammation. Increase in its expression is associated with an up regulation in pro-inflammatory activity. This bioassay was used to analyze the effect of the ingredients in the amounts listed in Table 9 on the production of TNF-α by human epidermal keratinocytes. The endpoint of this assay was a spectrophotometric measurement that reflects the presence of TNF-α and cellular viability. The assay employs the quantitative sandwich enzyme immunoassay technique whereby a monoclonal antibody specific for TNF-α has been pre-coated onto a microplate. Standards and samples were pipetted into the wells and any TNF-α present is bound by the immobilized antibody. After washing away any unbound substances, an enzyme-linked polyclonal antibody specific for TNF-α is added to the wells. Following a wash to remove any unbound antibody-enzyme reagent, a substrate solution is added to the wells and color develops in proportion to the amount of TNF-α bound in the initial step using a microplate reader for detection at 450 nm. The color development was stopped and the intensity of the color was measured. […] Following incubation, cell culture medium was collected and the amount of TNF-a secretion quantified using a sandwich enzyme linked immuno-sorbant assay (ELISA) from R&D Systems (#DTA00C).

Compound: NC(=O)c1cccnc1 [Niacinamide]
- % of Inhibition (B16 melanogenesis) (B16-F1 melanocytes): 30%

Compound: Sodium ascorbyl phosphate [Stay C 50]
- % of Inhibition (Mushroom Tyrosinase Inhibition) (mushroom tyrosinase): 26%
- % of Inhibition (Anti-oxidant capacity) [1]: 97%
- % of expression (Collagen 1 Expression) [2]: 36%
- % of expression (Lysyl Oxidase) [3]: 500%
- % of expression (TNF-α Expression) [4]: 85%
